By melting point is commonly meant the temperature, or range, at which the solid turns liquid. As usually defined, the IC50 is the concentration that gives 50% inhibition. One may read the EC50 as the midpoint of the concentration-response curve.

Read-outs that look alike come from different tables or passages of the source.

The text below walks through data of publication PMC6269873, “Substituted 3-Benzylcoumarins as Allosteric MEK1 Inhibitors: Design, Synthesis and Biological Evaluation as Antiviral Agents” (Molecules, 2013).

For one series, the target named is phosphorylated MEK1 (Homo sapiens, UniProt Q02750). Kind of series: MEK1 binding assay (HTRF, tracer displacement). As to conditions: for inhibition at 2 µM: read-out: % binding (2 µM); for inhibition at 20 µM: read-out: % binding (20 µM). A digest of the protocol:
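5 nM GST-tagged phosphorylated MEK1, 2 nM Eu anti-GST antibody and 20 nM kinase tracer 236 incubated with compound 30 min at room temperature in the dark.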
A general note: In TR-FRET formats the signal depends on donor and acceptor labels being close together.

In series [1] the test system is EV71. The series is described as follows: microbe, parasite or virus in culture. As to conditions: for EC50: Enterovirus A, EV71, HEK293. As for the experimental part: (§1) To further examine the functional effects, we selected EV71 to perform the antiviral analysis. […] CC50 is the median cytotoxic concentration measured with the MTT assay.
(§2) RD cells were cultured in DMEM and up to 70%–80% confluence in 96-well plates. Compounds were added into the culture medium for 1 h prior to virus infection using four wells for each concentration used. The compounds were added at the following concentrations: 1.25, 2.5, 5, 10, 20, 40 μM. Then cells were infected withEV71 (a clinical strain denoted as EV71-BC08, GU475127) at a multiplicity of infection (MOI) of 1. Virus controls (untreated wells of infected cells), cell controls (cells and drugs only, using the same dilution range for each compound as the test wells) were included on the plate. The cytopathic effect (CPE) were examined at every 12 h intervals post-infection by using phase-contrast microscopy. […] The cytotoxicity (CC50) was assayed by the MTT method.

For series [2], the system named is EV71. Kind of series: microbe, parasite or virus in culture. As to conditions: for EC50: Enterovirus A, EV71, RD. On the procedure:
as §1, §2

The next series deals with ERK pathway. Kind of series: cells. The class given is cell-based, Human. As to conditions: for IC50: Homo sapiens, HEK293. On the procedure:
The effects of the inhibitors on the activation of ERK pathway were determined in TPA (12-O-tetradecanoylphorbol-13-acetate)-stimulated cells using the AP-1 luciferase reporter gene assay system. Activating protein-1 (AP-1) is the nuclear transcription factor which is a heterodimeric protein downstream of MAPK composed of dimers of the Fos and Jun proteins. The stable AP-1 dimers bind to DNA recognition elements (AP-1 response elements) and mediate transcriptional induction. AP-1 controls a number of cellular events including differentiation, proliferation and apoptosis. Simultaneously, the expression of AP-1 can be regulated in response to different extracellular stimuli, such as cytokines, growth factors, stress, and bacterial and viral infections. ERK pathway is the most important mediator which is closely related to these responses. Activation of ERK pathway causes induction of fos gene, and then the product heterodimerizes with the Jun protein to form the AP-1 dimers. These newly formed heterodimers can enhance the expression of c-jun through AP-1 binding sites in the c-jun promoter. TPA can increase levels of AP-1 proteins through activation of the ERK pathway.
3.4.2. AP-1 Luciferase Reporter Gene Assay
pAP1-Luc was constructed with pGL3-basic (Promega, Madison, WI. USA) and a fragment including the AP-1 response element (2× TRE) and T7 promoter. HEK 293 cells in 96-well plates were cultured at 5% CO2 at 37 °C in DMEM containing 10% FBS. When the confluence was up to 80%, cells were transinfected with pAP1-Luc using lipofectamine 2000 (Life Technologies, Carlsbad, CA. USA). At 24 h post transinfection, individual compounds with different concentrations (5, 10, 20, 30 μM) were added into cells using three wells for each concentration used. After incubation for 1 h, TPA (50 nM) was added. The cells were harvested after 4 h and luciferase activity was measured by using luciferase assay kit (Promega) with a luminometer.

For series [3], the system named is unphosphorylated human MEK1. Details: method as in PMID 16199156. As to conditions: inhibition of activation of unphosphorylated human MEK1; cited from earlier work.

Sequence of phosphorylated MEK1 (Q02750 whole entry): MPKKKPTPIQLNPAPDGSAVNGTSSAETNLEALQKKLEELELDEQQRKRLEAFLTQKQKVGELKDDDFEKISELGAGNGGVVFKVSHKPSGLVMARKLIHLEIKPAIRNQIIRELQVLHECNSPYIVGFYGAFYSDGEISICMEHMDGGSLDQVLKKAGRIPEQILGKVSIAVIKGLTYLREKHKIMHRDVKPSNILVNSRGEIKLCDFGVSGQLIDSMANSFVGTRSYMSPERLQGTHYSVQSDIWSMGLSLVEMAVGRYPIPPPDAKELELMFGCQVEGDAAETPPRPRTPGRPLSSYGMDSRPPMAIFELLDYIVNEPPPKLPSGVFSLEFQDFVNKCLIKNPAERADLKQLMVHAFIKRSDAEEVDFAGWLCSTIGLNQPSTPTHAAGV

In turn, `Cc1c(Cc2ccccc2)c(=O)oc2cc(OC(=O)N(C)C)ccc12` [Compound 13, 3-Benzyl-4-methyl-2-oxo-2H-chromen-7-yl dimethylcarbamate] displayed a melting point of 130 to 133 °C. Also, on phosphorylated MEK1, the IC50 was 0.223 µM, the inhibition at 2 µM was 75.6% and the inhibition at 20 µM worked out at 95.2%. Moreover, in the series on EV71 [1], the “TI (CC50/IC50)” value came out at 29.85 and it took 3.29 µM to reach a half-maximal effect (EC50). In addition, in the series on EV71 [2], the “TI (CC50/IC50)” value worked out at 60.8 and a half-maximal effect (EC50) was put at 2.5 µM. Besides, in the series with ERK pathway, the “inhibition of ERK pathway activation (in words)” value (from here on “inhibition … (in words)”) is listed as “more efficiently than U0126” and half-maximal inhibition (IC50) required 5.4 ± 1.26 µM.
As for `Cc1c(Cc2ccc(F)cc2)c(=O)oc2cc(OC(=O)N(C)C)ccc12` [Compound 17, 3-(4-Fluorobenzyl)-4-methyl-2-oxo-2H-chromen-7-yl dimethylcarbamate], the melting point was in the range of 149 to 150 °C. Moreover, at phosphorylated MEK1, the IC50 worked out at 0.408 µM, the inhibition at 2 µM turned out to be 71.6% and the inhibition at 20 µM was found to be 82.1%. In addition, in the series on EV71 [2], the “TI (CC50/IC50)” value is 16.36 and the EC50 turned out to be 5.25 µM. Besides, in the series with ERK pathway, the “inhibition … (in words)” value is reported as “more efficiently than U0126” and it took 4.06 ± 3.26 µM to reach half-maximal inhibition (IC50).
As for `CCc1c(Cc2ccc(F)cc2)c(=O)oc2cc(OC(=O)N(C)C)ccc12` [Compound 18, 4-Ethyl-3-(4-fluorobenzyl)-2-oxo-2H-chromen-7-yl dimethylcarbamate], on phosphorylated MEK1, the IC50 amounted to 0.0546 µM, the “binding affinity (in words)” value is listed as “active”, the inhibition at 2 µM was determined as 98.2% and the inhibition at 20 µM came out at 99.4%. For the same molecule, in the series on EV71 [1], the “TI (CC50/IC50)” value was 3.37 and the EC50 stood at 19.4 µM. In the series on EV71 [2], the “TI (CC50/IC50)” value is listed as 7.29 and the concentration for a half-maximal effect (EC50) was 10 µM. In the series on ERK pathway, the “inhibition … (in words)” value was “more efficiently than U0126” and the IC50 was determined as 23.4 ± 1.11 µM.
`CCCc1c(Cc2ccc(F)cc2)c(=O)oc2cc(OC(=O)N(C)C)ccc12` [Compound 19, 3-(4-Fluorobenzyl)-2-oxo-4-propyl-2H-chromen-7-yl dimethylcarbamate] yielded a melting point of 82 to 84 °C. In addition, on phosphorylated MEK1, the 50% inhibitory concentration (IC50) was 0.158 µM, the inhibition at 2 µM turned out to be 66.2% and the inhibition at 20 µM was found to be 87.6%. Moreover, in the series with EV71 [1], the “TI (CC50/IC50)” value was determined as 65.24 and the concentration for a half-maximal effect (EC50) was 4.85 µM. In addition, in the series with EV71 [2], the “TI (CC50/IC50)” value amounted to 190 and the EC50 amounted to 3.98 µM. For the same molecule, in the series on ERK pathway, the “inhibition … (in words)” value is given as “more efficiently than U0126” and the IC50 is 4.31 ± 2.14 µM.
With `CCCc1c(Cc2ccc(F)cc2)c(=O)oc2cc(OC(C)=O)ccc12` [Compound 33, 3-(4-Fluorobenzyl)-2-oxo-4-propyl-2H-chromen-7-yl acetate], the melting point was 150 to 151 °C. In addition, on phosphorylated MEK1 (HTRF binding to GST tagged phosphorylated MEK1, read-out: IC50), the 50% inhibitory concentration (IC50) was found to be 0.252 µM. Besides, on phosphorylated MEK1, the inhibition at 2 µM was 61.4% and the inhibition at 20 µM is 72.2%. The same molecule registered an EC50 in the series with EV71 [1] of 12.8 µM. In the series with EV71 [2], the concentration giving a half-maximal response (EC50) was found to be 18.5 µM. For the same molecule, in the series on ERK pathway, the “inhibition … (in words)” value is given as “more efficiently than U0126” and the IC50 came out at 11.6 ± 1.2 µM.
On to `CCc1c(Cc2ccc(F)cc2)c(=O)oc2cc(OC(=O)c3ccccc3)ccc12` [Compound 67, 4-Ethyl-3-(4-fluorobenzyl)-2-oxo-2H-chromen-7-yl benzoate], for which the melting point lay in the range of 70 to 71 °C. Moreover, at phosphorylated MEK1, the “binding affinity (in words)” value is “inactive”, the inhibition at 2 µM was 44.6% and the inhibition at 20 µM was determined as 21.3%. Besides, the IC50 with ERK pathway came out at 64.6 ± 1.74 µM.
Regarding `Cc1c(Cc2ccc(F)cc2)c(=O)oc2cc(OC(=O)N(C)C)ccc12` [Compound G8935], the concentration for half-maximal inhibition (IC50) in series [3] is 0.3 µM.
